Experimental findings from patent US8858967B2, “Dermatological cream-gels containing avermectin compounds” (Galderma S.A., priority 2004, dated 2014) are described below.

The nature of this series: Maximum solubility of ivermectin in solvents. It counts as physicochemical. The source says:
By way of example of a solvent and/or a propenetrating agent for the ivermectin active agent, representative are propylene glycol, alcohols such as ethanol, isopropanol, butanol, benzyl alcohol, N-methyl-2-pyrrolidone or DMSO, polysorbate 80; phenoxyethanol, and mixtures thereof.

Turning to Ivermectin, the “Maximum % solubility of ivermectin in the solvent under consideration (weight/weight)” value reads like this: (solvent N-methyl-2-pyrrolidone) 58.13 % (weight/weight); (solvent propylene glycol/oleic acid (4 parts/2 parts)) 27.31 % (weight/weight); (solvent propylene glycol/polysorbate 80/phenoxyethanol (4 parts/1 part/1 part)) 28.63 % (weight/weight).
